{"source": "patent US8404665B2", "about": "“In vivo use of glutathione S-transferase activated nitric oxide donors” (University of Utah Research Foundation, priority 2002, dated 2013)", "test_system": "HL-60 cells", "experiment": "HL-60 leukemia cell growth (Coulter counter or MTT assay)", "type": "cell-based, human", "settings": "for pIC50: Homo sapiens; for effect on cell growth: HL-60, NAC 0.3-0.5 mM or BSO 0.2-0.3 mM alone; for inhibition of cell growth: HL-60 screen", "protocol": "Cell Lines and Culture Conditions. HL-60, DLD1, and U937 cells were obtained from ATCC (Rockville, Md.). Meth A cells were from Dr. Wolfram Samlowski (University of Utah, Salt Lake City, Utah). The PPC-1 cell line was provided by Dr. Graeme Bolger (University of Alabama, Birmingham, Ala.). For the cell growth and apoptosis experiments, cells were cultured at a density of 150,000 cells/ml in RPMI-1640 with 10% fetal bovine serum at 37° C. in a 5% CO2 humidified atmosphere. Agents were added at the indicated concentrations 24 h after culture initiation. At the indicated time intervals, cells were harvested and washed twice in phosphate buffered saline (PBS) prior to processing for analysis of growth, differentiation, and apoptosis.\nCell Growth, Differentiation and Apoptosis Assays. The number of viable cells was determined using the MTT assay according to the manufacturer's protocol (Promega, Madison, Wis.) or using a Coulter counter. Briefly, a MTT assay is an analytical technique that uses the dye dimethylthiazolyl-diphenyltetrazolium (MTT) which turns from yellow to brownish-purple as it is reduced in the mitochondria of living cells. The assay is useful in calorimetric quantitation of cell viability and proliferation. In contrast, cell differentiation was evaluated using Wright and Non-Specific Esterase (NSE) staining of cells collected on microscope slides by cytospin as previously described (Magrinat, G. et al. (1992) Blood 80: 1880-1884). Apoptosis was assayed by flow cytometry and by determining DNA fragmentation using agarose gel electrophoresis as previously described (Shami, P. J. et al. (1998) Leukemia 12: 1461-1466). For the flow cytometry assay, we used the propidium iodide staining method of Nicoletti et al. (Nicoletti, I. et al. (1991) J. Immunol. Methods 139: 271-279).\nFor the initial screen, HL60 cells were cultured in triplicate in RPMI1640/10% FBS under standard conditions. Compounds were added to the cultures at the following concentrations: 0, 0.1, 1, 10, and 100 micromolar (uM). Three days after addition of the compounds cell growth was determined either using a Coulter counter or using the MTT assay.\nThe antiproliferative effects in the human AML (Acute Myeloid Leukemia) cell lines, HL-60 (myeloid leukemia) and U937 (monoblastic leukemia) cells were treated with JS-K for a period of 3 days, upon which cell growth was evaluated using a Coulter counter (CITY, STATE). JS-K was added to HL-60 cells at 0, 0.25, 0.5, 0.75, and 1.0 μM concentrations. […] Similar results were obtained in U937 cells under similar conditions.", "key": {"[1]": {"settings": "HL-60 assay system, comparison with chemotherapeutic agents, read-out: IC50, growth inhibition"}}, "note": "pIC50: −log10 of the molar value. Read-outs that look alike come from different tables or passages of the source."}
{"smiles": "O=[N+]([O-])c1ccc(Cl)c([N+](=O)[O-])c1", "note": "[1-Chloro-2,4-dinitrobenzene, reference compound]", "values": [{"measurement": "pIC50", "setting": "HL-60, read-out: IC50, growth inhibition", "value": "~5.17"}]}
{"smiles": "CCCCS(=N)(=O)CCC(N)C(=O)O", "note": "(stereo not shown) [BSO, buthionine sulfoximine, reference compound]", "values": [{"measurement": "effect on cell growth", "value": "did not appear to significantly affect cell growth"}]}
{"smiles": "O=[N+]([O-])c1ccc(ON=[N+]([O-])N2CCN(c3ccccc3)CC2)c([N+](=O)[O-])c1", "note": "[JXC-2-40, O^2-(2,4-dinitrophenyl) 1-[4-phenylpiperazin-1-yl]diazen-1-ium-1,2-diolate]", "values": [{"measurement": "inhibition of cell growth", "value": "good inhibitors of cell growth"}]}
{"smiles": "O=[N+]([O-])c1ccc(ON=[N+]([O-])N2CCN(c3ncccn3)CC2)c([N+](=O)[O-])c1", "note": "[JXC-2-56, O^2-(2,4-dinitrophenyl) 1-[4-(pyrimidin-2-yl)piperazin-1-yl]diazen-1-ium-1,2-diolate]", "values": [{"measurement": "inhibition of cell growth", "value": "good inhibitors of cell growth"}]}
{"smiles": "CC(=O)N[C@@H](CS)C(=O)O", "note": "[NAC, N-acetyl-L-cysteine, reference compound]", "values": [{"measurement": "effect on cell growth", "value": "did not appear to significantly affect cell growth"}]}
{"smiles": "COc1cccc2c1C(=O)c1c(O)c3c(c(O)c1C2=O)C[C@@](O)(C(C)=O)C[C@@H]3O[C@H]1C[C@H](N)[C@H](O)[C@H](C)O1", "note": "[daunorubicin, reference compound]", "values": [{"measurement": "pIC50", "setting": "[1]", "value": 8.00}]}
{"smiles": "COc1cc([C@@H]2c3cc4c(cc3[C@@H](O[C@@H]3O[C@@H]5CO[C@@H](C)O[C@H]5[C@H](O)[C@H]3O)[C@H]3COC(=O)[C@H]23)OCO4)cc(OC)c1O", "note": "[etoposide, reference compound]", "values": [{"measurement": "pIC50", "setting": "[1]", "value": 6.52}]}
